The text below walks through data of patent US20090082400A1, “SOLUBLE PYRONE ANALOGS METHODS AND COMPOSITIONS” (priority 2007, published 2009).

Entries after “also recorded” stand apart in the source; their conditions may differ.

Data set [1] in a line: Sulfobutylether-7-β-cyclodextrin-quercetin aqueous composition: concentration and storage stability. Conditions: quercetin at 10 mg/ml in water with sulfobutylether-7-β-cyclodextrin. Format: physicochemical. As to the method: The flask is placed in an ice bath. […] Into the flask, 12 ml of 1 N sodium hydroxide is added over about 5 to 10 minutes. […] Into the flask is then added 10.5 ml of hydrochloric acid over 5 to 10 minutes at a slow enough rate to avoid precipitation. During the addition of the sodium hydroxide and the hydrochloric acid, the temperature is maintained at less than 20° C. DI water is then added to give total volume of 100 ml.

For data set [2] the following is noted: Zheng, et al. J. Pharm. Sci. 94(5), 2005; cited from earlier work.
For data set [3] the following is noted: in vivo; cited from earlier work.
Data set [4] can be described thus: Fisetin-sulfobutylether-7-β-cyclodextrin solution: concentration and precipitation. It counts as physicochemical. Conditions: approximately 1:2.5 molar ratio of fisetin to Captisol; pH 7.8-7.9. As to the method:
Captisol™ (17.9 g) is dissolved in 55 ml of distilled (or deionized) water. Fisetin (anhydrous) (965 mg) is then added to the above solution. The mixture is stirred vigorously followed by sonication if necessary to break up any clumps so that a homogeneous suspension is obtained.
While stirring vigorously, a 1 N NaOH solution (12.0 ml) is added slowly and for the formation of the fisetin-Captisol inclusion complex. The resulting solution will be at about pH 12.5 and may have an orange-brown color. The solution is not kept long at this pH, and is quickly neutralized in the following step.
While stirring, add 1N HCl solution (9 ml) dropwise to attain pH to 7.8-7.9. The final solution may be light-yellow to light orange in color. In some cases, the pH can be brought to below pH 7.8. […] Add water to a final volume of 100 ml.
This solution will contain approximately a 1:2.5 molar ratio of fisetin to Captisol. This procedure is for preparing an approximately 9.47 mg/ml fisetin solution. In some cases, the solution can be further diluted to make a solution for injection or for oral administration, for example, by diluting with either 0.9% saline solution and/or with a solution containing dextrose.

Turning to `O=c1c(O)c(-c2ccc(O)c(O)c2)oc2cc(O)cc(O)c12` [quercetin], in data set [1], the stability without precipitation entry is “stable for more than two weeks without precipitation”. In data set [2], the “stability in aqueous solution as a function of pH” value was “stable below pH 3; also recorded: degradation of quercetin above pH 5 became apparent”. In addition, the serum half-life in data set [3] is 19 to 25 h.

Regarding `O=c1c(O)c(-c2ccc(O)c(O)c2)oc2cc(O)ccc12` [fisetin], in data set [4], the “fisetin concentration of the solution” value is “approximately 9.47 mg/ml”.
